Experimental data: ChEMBL document CHEMBL1141062, “Synthesis and evaluation of tricyclic pyrrolopyrimidinones as dipeptide mimetics: inhibition of interleukin-1beta-converting enzyme” (Bioorg Med Chem Lett, 2005)
pIC50: −log10 of the molar value.

Legend:
[1] = molecular target: T1, Caspase-1 (Homo sapiens, UniProt P29466); experiment: Inhibitory activity towards CASP1 using fluorogenic substrates following an incubation for over 30 min at 37 degree C
T1 sequence (P29466 whole entry): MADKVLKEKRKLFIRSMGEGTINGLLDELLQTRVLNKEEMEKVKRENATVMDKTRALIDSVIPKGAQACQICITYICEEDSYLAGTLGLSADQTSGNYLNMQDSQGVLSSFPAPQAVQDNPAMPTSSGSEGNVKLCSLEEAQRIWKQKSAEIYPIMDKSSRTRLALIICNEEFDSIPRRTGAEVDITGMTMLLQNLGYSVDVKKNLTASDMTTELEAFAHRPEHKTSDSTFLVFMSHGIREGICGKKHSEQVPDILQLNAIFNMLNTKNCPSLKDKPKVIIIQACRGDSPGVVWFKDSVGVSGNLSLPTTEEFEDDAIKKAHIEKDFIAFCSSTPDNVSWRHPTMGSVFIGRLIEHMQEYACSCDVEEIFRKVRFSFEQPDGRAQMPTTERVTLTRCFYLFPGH

[2] = molecular target: T2, Caspase-3 (Homo sapiens, UniProt P42574); experiment: Inhibitory activity towards CASP3 using fluorogenic substrates following an incubation for over 30 min at 37 degree C
T2 sequence (P42574 whole entry): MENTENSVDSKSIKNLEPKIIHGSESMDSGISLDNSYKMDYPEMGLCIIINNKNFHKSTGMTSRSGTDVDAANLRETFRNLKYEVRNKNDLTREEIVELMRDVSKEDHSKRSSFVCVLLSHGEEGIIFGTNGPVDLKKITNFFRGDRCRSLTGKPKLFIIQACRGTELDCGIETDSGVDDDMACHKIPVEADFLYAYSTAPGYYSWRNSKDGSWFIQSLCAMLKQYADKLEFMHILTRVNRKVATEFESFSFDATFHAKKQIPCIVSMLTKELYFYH

[3] = test system: THP-1; experiment: Inhibitory concentration against IL-1b production in THP-1 cells; format: functional, cell-based; settings: Homo sapiens
[4] = molecular target: Caspase-8 (Homo sapiens, UniProt Q14790); experiment: Inhibitory activity towards CASP8 using fluorogenic substrates following an incubation for over 30 min at 37 degree C
Sequence of Caspase-8 (Q14790 217-374 limits assumed): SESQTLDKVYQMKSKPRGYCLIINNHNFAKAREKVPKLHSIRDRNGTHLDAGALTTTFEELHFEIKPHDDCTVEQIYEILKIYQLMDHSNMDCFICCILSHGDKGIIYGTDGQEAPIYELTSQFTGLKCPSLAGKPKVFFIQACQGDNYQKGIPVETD
Sequence of Caspase-8 (Q14790 385-479 limits assumed): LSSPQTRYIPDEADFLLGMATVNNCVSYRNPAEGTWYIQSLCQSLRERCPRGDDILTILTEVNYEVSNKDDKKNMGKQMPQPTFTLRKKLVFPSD

| Compound | pIC50 [1] | pIC50 [2] | pIC50 [3] | pIC50 [4] |
| --- | --- | --- | --- | --- |
| O=C1C[C@H](NC(=O)[C@@H]2CCc3nc4cc(-c5ccccc5)nc-4c(O)n32)C(O)O1 (some centres undefined) | 6.58 | 5.00 | 5.97 | 5.52 |
| O=C1C[C@H](NC(=O)[C@@H]2CCc3nc4cc(-c5ccc(Cl)cc5)nc-4c(O)n32)C(O)O1 (some centres undefined) | 7.01 | 5.00 | 6.08 | 5.32 |
| CC(C)(C)c1cc2nc3n(c(O)c-2n1)[C@H](C(=O)N[C@H]1CC(=O)OC1O)CC3 (some centres undefined) | 6.38 | 5.64 | 6.01 | 5.12 |
| O=C1C[C@H](NC(=O)[C@@H]2CCc3nc4cc(-c5cccc(Cl)c5)nc-4c(O)n32)C(O)O1 (some centres undefined) | 7.26 | 5.36 | 6.28 | 5.74 |
| O=C1C[C@H](NC(=O)[C@@H]2CCc3nc4ccccc4c(=O)n32)C(O)O1 (some centres undefined) | 5.34 | 5.00 | 5.00 | 5.00 |
| O=C1C[C@H](NC(=O)[C@@H]2CCc3nc4cc(-c5ccccc5Cl)nc-4c(O)n32)C(O)O1 (some centres undefined) | 7.85 | 5.73 | 6.60 | 6.47 |
